Patent US4711889A, “Schistosomicidal acridanone hydrazones” (Hoffman-La Roche Inc., priority 1986, dated 1987)
Counter-ions that a name gives are not always drawn.

Assay: acute toxicity, single oral administration to mice
Details: mouse, in vivo
Excerpt: The following Table contains the results obtained with representative compounds of the invention. In the Table there are given for each of listed compounds, the VD50 in mg/kg p.o. and the LD50 in mg/kg single oral administration to mice.

Compound	LD50
Cl.Cl.NCCn1c2ccccc2c(=NNc2nccs2)c2ccccc21 [10-(2-aminoethyl)-9-acridanone 2-thiazolylhydrazone dihydrochloride]	156 to 312 mg/kg
c1ccc2c(c1)c(=NNc1nccs1)c1ccccc1n2CCN1CCCCC1 [10-[2-(1-piperidinyl)ethyl]-9-acridanone (2-thiazolyl)hydrazone 1.5 HCl]	312 to 625 mg/kg
c1ccc2c(c1)c(=NN=C1NCCS1)c1ccccc1n2CCN1CCCC1 [10-[2-(1-pyrrolidinyl)ethyl]-9-acridanone (2-thiazolidinylidene)hydrazone]	156 to 312 mg/kg
CC(=O)N1CCN(CCn2c3ccccc3c(=NN=C3NCCS3)c3ccccc32)CC1 [10-[2-(4-acetyl-1-piperazinyl)ethyl]-9-acridanone (2-thiazolidinylidene)hydrazone]	1250 to 2500 mg/kg
CC(=O)N1CCN(CCn2c3ccccc3c(=NNc3nccs3)c3ccccc32)CC1.Cl.Cl [10-[2-(4-acetyl-1-piperazinyl)ethyl]-9-acridanone (2-thiazolyl)hydrazone dihydrochloride]	312 to 625 mg/kg
CN1CCN(CCn2c3ccccc3c(=NN=C3NCCS3)c3ccccc32)CC1 [10-[2-(4-methyl-1-piperazinyl)ethyl]-9-acridanone (2-thiazolidinylidene)hydrazone]	156 to 312 mg/kg
CN1CCN(CCn2c3ccccc3c(=NNc3nccs3)c3ccccc32)CC1 [10-[2-(4-methyl-1-piperazinyl)ethyl]-9-acridanone (2-thiazolyl)hydrazone. 2.5 HCl]	625 to 1250 mg/kg
CCN(CC)CCn1c2ccccc2c(=NN=C2NCCS2)c2ccccc21 [10-[2-(diethylamino)ethyl]-9-acridanone (2-thiazolidinylidene)hydrazone]	312 to 625 mg/kg
CCN(CC)CCn1c2ccccc2c(=NNc2nccs2)c2ccccc21.Cl.Cl [10-[2-(diethylamino)ethyl]-9-acridanone (2-thiazolyl)hydrazone dihydrochloride]	> 5000 mg/kg
CN(C)CCn1c2ccccc2c(=NN=C2NCCS2)c2ccccc21 [10-[2-(dimethylamino)ethyl]-9-acridanone (2-thiazolidinylidene)hydrazone]	250 to 500 mg/kg
CN(C)CCn1c2ccccc2c(=NNc2nccs2)c2ccccc21.Cl.Cl [10-[2-(dimethylamino)ethyl]-9-acridanone (2-thiazolyl)hydrazone dihydrochloride]	312 to 625 mg/kg
CN(C)CCCn1c2ccccc2c(=NN=C2NCCS2)c2ccccc21 [10-[3-(dimethylamino)propyl]-9-acridanone (2-thiazolidinylidene)hydrazone]	125 to 250 mg/kg
CN(C)CCCn1c2ccccc2c(=NNc2nccs2)c2ccccc21.Cl.Cl [10-[3-(dimethylamino)propyl]-9-acridanone (2-thiazolyl)hydrazone dihydrochloride]	312 to 625 mg/kg
